Experimental data as given in publication PMC10504751, “Chalcone/1,3,4-Oxadiazole/Benzimidazole hybrids as novel anti-proliferative agents inducing apoptosis and inhibiting EGFR & BRAFV^600E” (BMC Chemistry, 2023).
Where two headings read alike, the source gives them in different places.

Tests used:
HT-29 = assay: Propidium iodide anti-proliferative assay; assay type: cell-based; settings: Homo sapiens, 48 h incubation, read-out: IC50 ± SEM HT-29
Description: (§1) The propidium iodide (PI) tests^31, 32 were further used for assessment of the IC50 of all synthesized compounds and compared to Doxorubicin as a positive control against four cancer cell lines; pancreatic cancer cell line (Panc-1), epithelial line cancer cell (A-549), breast cancer cell line (MCF-7), and colon cancer cell line (HT-29).
(§2) Using the propidium iodide fluorescence assay with doxorubicin as the reference drug, IC50 of the 24 compounds 7a-x, was carried out according to a previously reported procedure^31, 32 against a panel of four human cancer cell lines; epithelial cancer cell line (A-549), breast cancer cell line (MCF-7), colon cancer cell line (HT-29) and pancreas cancer cell line (Panc-1). Compounds 7a-x were incubated with cancer cells for 2 days at different concentrations. See Appendix A.
(§3) To explore the antiproliferative potential of compounds propidium iodide fluorescence assay was performed using different cell lines (melanoma cancer cell line LOX-IMVI, pancreatic cancer cell line (Panc-1), epithelial line cancer cell (A-549), breast cancer cell line (MCF-7), and colon cancer cell line (HT-29). To calculate the total nuclear DNA, a fluorescent dye (propidium iodide, PI) is used which can attach to the DNA,^9,^10 thus offering a quick and precise technique. PI cannot pass through the cell membrane and its signal intensity can be considered as directly proportional to the quantity of cellular DNA. Cells whose cell membranes are damaged or have changed permeability are counted as dead ones. The assay was performed by seeding the cells of different cancer cell lines at a density of 3000-7500 cells/well (in 200µl medium) in culture plates followed by incubation for 24h at 37 °C in humidified 5% CO2/95% air atmospheric conditions. The medium was removed; the compounds were added to the plates at 10 µM concentrations (in 0.1% DMSO) in triplicates, followed by incubation for 48 h. DMSO (0.1%) was used as control. After incubation, medium was removed followed by the addition of PI (25 µl, 50µg/mL in water/medium) to each well of the plates. At -80 °C, the plates were allowed to freeze for 24 h, followed by thawing at 25 °C. A fluorometer (Polar-Star BMG Tech) was used to record the readings at excitation and emission wavelengths of 530 and 620 nm for each well. The percentage cytotoxicity of compounds was calculated using the following formula:
(§4) Where ATC= Absorbance of treated cells and AC= Absorbance of control. […]

Panc-1 = assay: Propidium iodide anti-proliferative assay; assay type: cell-based; settings: Homo sapiens, 48 h incubation, read-out: IC50 ± SEM Panc-1
Description: as §1, §2, §3, §4

MCF-7 = assay: Propidium iodide anti-proliferative assay; assay type: cell-based; settings: Homo sapiens, MCF7; 48 h incubation; read-out: IC50 ± SEM MCF-7
Description: as §1, §2, §3, §4

A-549 = assay: Propidium iodide anti-proliferative assay; assay type: cell-based; settings: Homo sapiens, A549; 48 h incubation; read-out: IC50 ± SEM A-549
Description: as §1, §2, §3, §4

SK-OV-3 = assay: NCI one-dose SRB anti-proliferative screen; assay type: cell-based; settings: Homo sapiens, read-out: Cell growth inhibition %
Description: (§5) The twenty-four synthesized compounds were submitted to the National Cancer Institute (NCI), USA. Eighteen hybrids 7a-h, 7k-r, 7u, and 7v were selected by NCI for one-dose assessment of their anti-proliferative activities at 10 µM dose by Sulforhodamine B colorimetric assay. The assessment was performed in 60 cell lines derived from nine tumor subpanels, comprising lung, leukemia, melanoma, colon, renal, CNS, prostate, breast, and ovarian cancer cell lines.
(§6) The methodology of the NCI anti-proliferative screening has been described in details elsewhere (http://www.dtp.nci.nih.gov).

HL-60(TB) = assay: NCI one-dose SRB anti-proliferative screen; assay type: cell-based; settings: Homo sapiens, read-out: Cell growth inhibition %
Description: as §5, §6

PC-3 = assay: NCI one-dose SRB anti-proliferative screen; assay type: cell-based; settings: Homo sapiens, read-out: Cell growth inhibition %
Description: as §5, §6

T-47D = assay: NCI one-dose SRB anti-proliferative screen; assay type: cell-based, human; settings: Homo sapiens, T47D, read-out: Cell growth inhibition %
Description: as §5, §6

MOLT-4 = assay: NCI one-dose SRB anti-proliferative screen; assay type: cell-based, human; settings: Homo sapiens, read-out: Cell growth inhibition %
Description: as §5, §6

HCT-116 = assay: NCI one-dose SRB anti-proliferative screen; assay type: cell-based, human; settings: for inhibition at 10 µM: Homo sapiens, read-out: Cell growth inhibition %; for Growth Percent: 10 µM one dose
Description: as §5, §6

K-562 = assay: NCI one-dose SRB anti-proliferative screen; assay type: cell-based, human; settings: for inhibition at 10 µM: Homo sapiens, K562, read-out: Cell growth inhibition %
Description: as §5, §6

RXF 393 = assay: NCI one-dose SRB anti-proliferative screen; assay type: cell-based, human; settings: Homo sapiens, read-out: Cell growth inhibition %
Description: as §5, §6

[1] = MTT cell viability assay in normal cells; assay type: cell-based; settings: human, MCF-10A normal mammary epithelial cells
Description: To check the safety of prepared compounds and evaluate their selectivity towards tumor cells over normal ones, the toxicity of compounds 7a-x were evaluated by 3-(4,5-Dimethylthiazole-2-yl)-2,5-diphenyltetrazol (MTT) assay on the normal human mammary epithelial cell line (MCF-10 A). The human mammary epithelial cell lines were incubated for four days with a concentration of 50 µM of compounds 7a-x.
MTT assay was done to determine the effect of the synthesized compounds on the viability of mammary epithelial cells (MCF-10 A). Compounds 7a-x were incubated with MCF-10 A cells for 4 days at 50 µM concentration, and the viability of cells was determined. See Appendix A.
MTT assay was carried out to study the effect of compounds on mammary epithelial cells (MCF-10A).^7, ^8 The medium in which cells were propagated contained Dulbecco's modified Eagle's medium (DMEM)/ Ham's F-12 medium (1:1) supplemented with epidermal growth factor (20 ng/mL), hydrocortisone (500 ng/mL), insulin (10 μg/mL), 2 mM glutamine and 10% foetal calf serum. After every 2-3 days, the cells were passaged using trypsin ethylenediamine tetra acetic acid (EDTA). The cells were seeded at a density of 10^4 cells mL^-1 in flat-bottomed culture plates containing 96 wells each. After 24 h, medium was removed from the plates and the compounds in (in 0.1% DMSO) were added (in 200 μL medium to yield a final concentration of 0.1% v/v) to the wells of plates. A single compound was designated with four wells followed by incubation of plates for 96h at 37°C. After incubation, medium was removed completely from the plates followed by addition of MTT (0.4 mg/mL in medium) to each well and subsequent incubation of plates for 3h. MTT (along with the medium) was removed and DMSO (150μL) was added to each well of the culture plates, followed by vortexing and subsequent measurement of absorbance (at 540 nm) using microplate reader.

[2] = SK-OV-3 (Ovarian Cancer), NCI one dose 10 µM
[3] = HL-60(TB) (Leukemia), NCI one dose 10 µM
[4] = PC-3 (Prostate Cancer), NCI one dose 10 µM
[5] = T-47D (Breast Cancer), NCI one dose 10 µM
[6] = MOLT-4 (Leukemia), NCI one dose 10 µM
[7] = HCT-116 (Colon Cancer), NCI one dose 10 µM
[8] = K-562 (Leukemia), NCI one dose 10 µM
[9] = RXF 393 (Renal Cancer), NCI one dose 10 µM
[10] = SK-OV-3, Ovarian Cancer, NCI one dose
[11] = HL-60(TB), Leukemia, NCI one dose
[12] = PC-3, Prostate Cancer, NCI one dose
[13] = T-47D, Breast cancer, NCI one dose
[14] = HCT-116, Colon cancer, NCI one dose
[15] = RXF 393, Renal cancer, NCI one dose

Structure (SMILES) | IC50 (HT-29) | IC50 (Panc-1) | IC50 (MCF-7) | IC50 (A-549) | inhibition at 10 µM (SK-OV-3; [2]) | inhibition at 10 µM (HL-60(TB); [3]) | inhibition at 10 µM (PC-3; [4]) | inhibition at 10 µM (T-47D; [5]) | inhibition at 10 µM (MOLT-4; [6]) | inhibition at 10 µM (HCT-116; [7]) | inhibition at 10 µM (K-562; [8]) | inhibition at 10 µM (RXF 393; [9]) | melting point | viability at 96 h, 50 µM [1] | inhibition at 10 µM (SK-OV-3; [10]) | inhibition at 10 µM (HL-60(TB); [11]) | inhibition at 10 µM (PC-3; [12]) | inhibition at 10 µM (T-47D; [13]) | inhibition at 10 µM (MOLT-4; MOLT-4, Leukemia, NCI one dose) | Growth Percent (HCT-116; HCT-116 (Colon Cancer)) | further results
O=C(CSc1nnc(-c2ccc3[nH]c(-c4ccc(Cl)cc4)nc3c2)o1)Nc1ccc(C(=O)/C=C/c2ccc(Cl)cc2)cc1 [Compound 7g, 2-{5-[2-(4-Chlorophenyl)-1 H-benzo[d]imidazol-5-yl]-1,3,4-oxadiazol-2-ylthio}-N-{4-[(E)-3-(4-chlorophenyl)acryloyl]phenyl}acetamide] | 2100 ± 600 nM | 1900 ± 500 nM | 1450 ± 300 nM | 1800 ± 600 nM | 0% | 14% | 12.3% | 12.9% | 22.2% | 22.2% | 18.6% | 0% | 215 to 217 °C | 91% | – | – | – | – | – | – | –
COc1ccc(-c2nc3cc(-c4nnc(SCC(=O)Nc5ccc(C(=O)/C=C/c6cc(OC)c(OC)c(OC)c6)cc5)o4)ccc3[nH]2)cc1 [Compound 7o, 2-{5-[2-(4-Methoxyphenyl)-1 H-benzo[d]imidazol-5-yl]-1,3,4-oxadiazol-2-ylthio}-N-{4-[(E)-3-(3,4,5-trimethoxyphenyl)acryloyl]phenyl}acetamide] | 8600 ± 400 nM | 8200 ± 1200 nM | 7100 ± 600 nM | 7600 ± 300 nM | – | – | – | – | – | – | – | – | 154 to 156 °C | 89% | 0% | 0% | 0% | 0% | 9% | 50.04% | inhibition at 10 µM (HCT-116; [14]): 0%; inhibition at 10 µM (K-562; K-562, Leukemia, NCI one dose): 8.26%; inhibition at 10 µM (RXF 393; [15]): 0%
O=C(CSc1nnc(-c2ccc3[nH]c(-c4ccc(Cl)cc4)nc3c2)o1)Nc1ccc(C(=O)/C=C/c2ccccc2)cc1 [Compound 7f, 2-{5-[2-(4-Chlorophenyl)-1 H-benzo[d]imidazol-5-yl]-1,3,4-oxadiazol-2-ylthio}-N-{4-[(E)-3-phenylacryloyl]phenyl}acetamide] | 2700 ± 500 nM | 2400 ± 600 nM | 2050 ± 500 nM | 2150 ± 500 nM | 0% | 0% | 0% | 0% | 9% | 0% | 8.26% | 0% | 161 to 163 °C | 87% | – | – | – | – | – | – | –
COc1ccc(/C=C/C(=O)c2ccc(NC(=O)CSc3nnc(-c4ccc5[nH]c(-c6ccc(Cl)cc6)nc5c4)o3)cc2)cc1 [Compound 7h, 2-{5-[2-(4-Chlorophenyl)-1 H-benzo[d]imidazol-5-yl]-1,3,4-oxadiazol-2-ylthio}-N-{4-[(E)-3-(4-methoxyphenyl)acryloyl]phenyl}acetamide] | 2250 ± 600 nM | 2050 ± 500 nM | 1750 ± 400 nM | 1950 ± 600 nM | 0% | 21.4% | 17.5% | 22% | 35.4% | 6.56% | 12.7% | 0% | 228 to 230 °C | 87% | – | – | – | – | – | – | –
COc1ccc(-c2nc3cc(-c4nnc(SCC(=O)Nc5ccc(C(=O)/C=C/c6ccccc6)cc5)o4)ccc3[nH]2)cc1OC [Compound 7p, 2-{5-[2-(3,4-Dimethoxyphenyl)-1 H-benzo[d]imidazol-5-yl]-1,3,4-oxadiazol-2-ylthio}-N-{4-[(E)-3-phenylacryloyl]phenyl}acetamide] | 3300 ± 400 nM | 3100 ± 400 nM | 2100 ± 200 nM | 2500 ± 500 nM | 0% | 0% | 0% | 13.1% | 19.5% | 10.3% | 8.36% | 0% | 185 to 186 °C | 87% | – | – | – | – | – | – | –
COc1ccc(-c2nc3cc(-c4nnc(SCC(=O)Nc5ccc(C(=O)/C=C/c6ccc(OC)c(OC)c6)cc5)o4)ccc3[nH]2)cc1 [Compound 7n, 2-{5-[2-(4-Methoxyphenyl)-1 H-benzo[d]imidazol-5-yl]-1,3,4-oxadiazol-2-ylthio}-N-{4-[(E)-3-(3,4-dimethoxyphenyl)acryloyl]phenyl}acetamide] | 2200 ± 600 nM | 2050 ± 500 nM | 1650 ± 300 nM | 1900 ± 600 nM | – | – | – | – | – | – | – | – | 222 to 224 °C | 92% | 0% | 13.8% | 2.83% | 15.4% | 35.7% | 57.96% | inhibition at 10 µM (HCT-116; [14]): 42%; inhibition at 10 µM (K-562; K-562, Leukemia, NCI one dose): 52.1%; Growth Percent (K-562; K-562 (Leukemia), 10 µM one dose): 47%; inhibition at 10 µM (RXF 393; [15]): 31.5%
